Measured values: patent US3968233A, “α-Amino-γ-butyrolactones as sedatives” (priority 1975, dated 1976)
Entries after “also recorded” stand apart in the source; their conditions may differ.

Legend:
[1] = Time to death by slow intravenous infusion of strychnine; type: in vivo, mouse; details: for mean infusion time to cause animals to die: strychnine infusion 0.25 ml/min
Experimental: (3) continuous intravenous infusion at constant rate (0.4 ml/min) of a strychnine sulfate solution (26.66 mg/l) was carried out by injection through a tail vein into mice until they died. One group of animals received 500 mg/kg of AP-28 as preliminary treatment 15 minutes prior to the beginning of infusion. The mean infusion time to cause six control animals to die was 134 ± 3.2 seconds (mean ± SE). The mean infusion time required to obtain the same effect in animals pretreated with AP-28 was 210 ± 6.1 seconds.
In another experiment the infusion rate of strychnine was lowered to 0.25 ml/min. Under this condition, the mean infusion time was 246 ± 3.1 seconds in the case of controls (six animals) and 338 ± 24.3 seconds in that of treated animals.
When the same infusion rate as above was maintained and the amount of AP-28 was reduced to 250 mg/kg, the mean infusion time was 260 ± 13.4 seconds with control animals and 360 ± 21.2 seconds with treated animals.

[2] = Clinical trial, 1st group: insomnia; type: in vivo, human; details: 400-600 mg one dose at night, 5 to 15 days; seven patients
Experimental: (§1) Clinical trials were performed on three groups of patients, partly hospitalized patients and partly outpatients. It was determined that the effect observed in the experimental pharmacological studies were useful in the treatment of humans as well.
Seven patients complaining of insomnia were treated for a period of time varying from 5 to 15 days. The daily dose was 400-600 mg given as one dose at night.

[3] = Acute toxicity of AP-28 in the rat; type: in vivo, rat (Wistar-Morini Strain); details: for Died/treated: in 24 hours; for Remarks: oral
Experimental: AP-28 was administered to adult rats (Wistar-Morini Strain) of both sexes after fasting overnight. It was administered in an aqueous 1-percent suspension of tragacanth gum orally by gastric probe or intraperitoneally.

[4] = Excretion rate of intravenously-injected bromosulfonphthalein in bile; type: in vivo; details: single 500 mg/kg oral dose
Experimental: (§2) The effect of a single 500 mg/kg oral dose of AP-28 was determined on (a) diuresis in water-loaded rats, (b) choleresis, (c) the excretion rate of intravenously-injected bromosulfonphthalein in bile, (d) arterial blood pressure.

[5] = Avoidance reflex in conditioned mice; type: in vivo, mouse; details: control 53.3 ± 4.5 sec
Excerpt: A conditioning cage was constructed of two chambers with free access between chambers. The floor of one compartment was electrified to make it possible to deliver a mild shock. Mice were conditioned by first giving a warning signal and then after a short period of time the shock was applied. Eventually the mice learned to leave the electrified compartment after the warning bell sounded and they were then judged to be conditioned. The average period of time, in this experiment, for control animals (4) to leave the compartment was 53.3 ± 4.5 sec. Four conditioned mice were administered AP-28 intraperitoneally with 250 mg/kg and their time was 60.6 ± 3.9 sec. Four more conditioned mice treated with 500 mg/kg of AP-28 required 77.5 ± 2.7 sec. to clear the compartment.

[6] = Clinical trial, 3rd group: essential epilepsy; type: in vivo, human; details: 0.500 to 1.500 g daily, 10 to 30 days
Experimental: as §1
Four patients suffering from essential epilepsy were treated for periods of time varying between 10 and 30 days with daily doses ranging from 0.500 to 1.500 g. […] In the fourth patient it was possible to lower the anti-epileptic massive therapy they had been following for some time, and on which they were maintained throughout this study, by more than 50%.

[7] = Clinical studies, overall; type: in vivo, human; details: humans
Experimental: as §1

[8] = Enhancement of the hypnotic effect of sodium pentobarbital; type: in vivo, mouse
Experimental: Forty mg/kg of sodium pentobarbital was injected intraperitoneally into mice and note was taken of animals losing the righting reflex and for how long. Other mice received a preliminary treatment with AP-28 at a dosage of 250 and 500 mg/kg, intraperitoneally, and thereafter sodium pentobarbital was given to them.

Choleresis = type: in vivo; details: single 500 mg/kg oral dose
Experimental: as §2

[9] = Protective effect against strychnine (single injection); type: in vivo, mouse; details: 30 minutes before strychnine
Experimental: This type of antagonism was evaluated in the mouse in three ways, namely: (1) protection from death from one hypodermic injection of strychnine: (2) evaluation of the LD50 of strychnine in mice both treated and untreated with AP-28, and (3) influence on the time required to cause animals to die by slow intravenous perfusion of strychnine. […] Groups of six mice were used. (2) increasing amounts of strychnine sulfate were injected hypodermically. In two experiments 200 or 400 mg/kg of intraperitoneal AP-28 were given 30 minutes prior to strychnine injection and the LD50 was calculated. The following results were obtained (95-percent confidence limits): […]

[10] = Subacute toxicity, daily oral dosing for 6 consecutive days; type: in vivo, rat; details: 500 mg/kg daily for 6 consecutive days
Experimental: Accordingly, 8 rats were given 500 mg/kg daily for 6 consecutive days.

[11] = Diuresis in water-loaded rats; type: in vivo, rat
Experimental: as §2

[12] = oral (gastric probe), 250 mg/kg
[13] = oral (gastric probe), 500 mg/kg
[14] = oral (gastric probe), 1000 mg/kg
[15] = oral (gastric probe), 1500 mg/kg
[16] = oral (gastric probe), 2000 mg/kg
[17] = AP-28 250 + sodium pentobarbital 40 mg/kg i.p.
[18] = AP-28 500 + sodium pentobarbital 40 mg/kg i.p.

**Q.** For `CCCCOC(=O)NC1CCOC1=O` (stereo not drawn) [AP-28, α-n-butoxycarbonyl-amino-γ-butyrolactone], which “mean infusion time to cause animals to die” value ([1]; AP-28 250 mg/kg, control 260 ± 13.4) is on record?
**A.** The value was 360 ± 21.2 s.

**Q.** What about the “mean infusion time to cause animals to die (mean ± SE)” value ([1]; AP-28 500 mg/kg, 15 minutes prior, strychnine infusion 0.4 ml/min, control 134 ± 3.2) of the same molecule?
**A.** The value was 210 ± 6.1 s.

**Q.** What about the “mean infusion time to cause animals to die” value ([1]; AP-28 500 mg/kg, control 246 ± 3.1) of the same molecule?
**A.** Its value is 338 ± 24.3 s.

**Q.** What about the “effects on awakening (blunting or grogginess)” value [2] of the same molecule?
**A.** Its value is “no blunting or grogginess of their minds when they woke up; also recorded: no apparent effects on awakening”.

**Q.** What about the “loss of the righting reflex” value ([3]; highest oral dose) of the same molecule?
**A.** The value was “did not cause the loss of the righting reflex”.

**Q.** What about the “Remarks: sedated for” value ([3]; i.p., 250 mg/kg) of the same molecule?
**A.** Its value is “about 15 minutes”.

**Q.** And the “Under hypnosis/treated (loss of the righting reflex)” value ([3]; i.p., 250 mg/kg)?
**A.** Its value is 0/4.

**Q.** And the Died/treated ([3]; i.p., 250 mg/kg)?
**A.** The Died/treated was 0/4.

**Q.** What about the “Remarks: sedated for” value ([3]; i.p., 500 mg/kg) of the same molecule?
**A.** The value was “about 20 minutes”.

**Q.** And the “Under hypnosis/treated (loss of the righting reflex)” value ([3]; i.p., 500 mg/kg)?
**A.** Its value is 0/4.

**Q.** What about the Died/treated ([3]; i.p., 500 mg/kg) of the same molecule?
**A.** The Died/treated was 0/4.

**Q.** What about the “loss of the righting reflex” value ([3]; i.p., 1 g/kg) of the same molecule?
**A.** Its value is “the loss of the righting reflex occurred”.

**Q.** What about the “Remarks: under hypnosis for” value ([3]; i.p., 1000 mg/kg) of the same molecule?
**A.** Its value is “about 15 minutes”.

**Q.** And the “Under hypnosis/treated (loss of the righting reflex)” value ([3]; i.p., 1000 mg/kg)?
**A.** Its value is 4/4.

**Q.** What about the Died/treated ([3]; i.p., 1000 mg/kg) of the same molecule?
**A.** Its Died/treated is 0/4.

**Q.** And the “Remarks: under hypnosis for” value ([3]; i.p., 1500 mg/kg)?
**A.** The value was “about 30 minutes”.

**Q.** And the “Under hypnosis/treated (loss of the righting reflex)” value ([3]; i.p., 1500 mg/kg)?
**A.** The value was 4/4.

**Q.** And the Died/treated ([3]; i.p., 1500 mg/kg)?
**A.** The Died/treated was 0/4.

**Q.** What about the “Remarks: under hypnosis for” value ([3]; i.p., 2000 mg/kg) of the same molecule?
**A.** The value was “about 60 minutes”.

**Q.** What about the “Under hypnosis/treated (loss of the righting reflex)” value ([3]; i.p., 2000 mg/kg) of the same molecule?
**A.** Its value is 4/4.

**Q.** What about the Died/treated ([3]; i.p., 2000 mg/kg) of the same molecule?
**A.** Its Died/treated is 0/4.

**Q.** What about the toxicity ([3]; laboratory animals, summary statement) of the same molecule?
**A.** The toxicity was “toxicity is nearly negligible”.

**Q.** What about the “Under hypnosis/treated (loss of the righting reflex)” value [3, 12] of the same molecule?
**A.** The value was 0/4.

**Q.** What about the Died/treated [3, 12] of the same molecule?
**A.** Its Died/treated is 0/4.

**Q.** What about the “Under hypnosis/treated (loss of the righting reflex)” value [3, 13] of the same molecule?
**A.** The value was 0/4.

**Q.** What about the Died/treated [3, 13] of the same molecule?
**A.** Its Died/treated is 0/4.

**Q.** And the “Under hypnosis/treated (loss of the righting reflex)” value [3, 14]?
**A.** The value was 0/4.

**Q.** What about the Died/treated [3, 14] of the same molecule?
**A.** Its Died/treated is 0/4.

**Q.** What about the “Under hypnosis/treated (loss of the righting reflex)” value [3, 15] of the same molecule?
**A.** The value was 0/4.

**Q.** What about the Died/treated [3, 15] of the same molecule?
**A.** The Died/treated was 0/4.

**Q.** What about the “Under hypnosis/treated (loss of the righting reflex)” value [3, 16] of the same molecule?
**A.** The value was 0/4.

**Q.** And the Died/treated [3, 16]?
**A.** Its Died/treated is 0/4.

**Q.** What about the Remarks ([3]; 250 mg/kg) of the same molecule?
**A.** The Remarks was “No particular effect”.

**Q.** And the Remarks ([3]; 500 mg/kg)?
**A.** The Remarks was “did not cause any particular effect”.

**Q.** What about the Remarks ([3]; 1000 mg/kg) of the same molecule?
**A.** The Remarks was “Slightly sedated; also recorded: a mild sedative effect”.

**Q.** What about the Remarks ([3]; 1500 mg/kg) of the same molecule?
**A.** Its Remarks is “Sedated”.

**Q.** What about the Remarks ([3]; 2000 mg/kg (highest oral dose), 2000 mg/kg) of the same molecule?
**A.** Its Remarks is “produced a sedative effect; also recorded: Very sedated”.

**Q.** What about the “duration of sedative and hypnotic effects” value ([3]; rat) of the same molecule?
**A.** Its value is “not long lasting and the animal returned to normal”.

**Q.** What about the LD0 ([3]; rat, oral or intraperitoneal) of the same molecule?
**A.** The LD0 was “more than 2 g/kg”.

**Q.** And the “excretion rate of bromosulfonphthalein in bile” value [4]?
**A.** The value was “No treatment caused any significant change”.

**Q.** What about the “time to leave the electrified compartment” value ([5]; 250 mg/kg i.p.) of the same molecule?
**A.** Its value is 60.6 ± 3.9 s.

**Q.** What about the “time to leave the electrified compartment” value ([5]; 500 mg/kg i.p.) of the same molecule?
**A.** The value was 77.5 ± 2.7 s.

**Q.** What about the “lowering of anti-epileptic massive therapy, fourth patient” value [6] of the same molecule?
**A.** Its value is “more than 50%”.

**Q.** What about the adverse effects [7] of the same molecule?
**A.** The adverse effects was “No adverse effects were observed”.

**Q.** What about the Animals under hypnosis/treated [8, 17] of the same molecule?
**A.** Its Animals under hypnosis/treated is 4/4.

**Q.** What about the “Duration of hypnosis in minutes (m ± SE)” value [8, 17] of the same molecule?
**A.** Its value is 52.5 ± 13 min.

**Q.** And the Animals under hypnosis/treated [8, 18]?
**A.** The Animals under hypnosis/treated was 4/4.

**Q.** And the “Duration of hypnosis in minutes (m ± SE)” value [8, 18]?
**A.** Its value is 75.2 ± 21.6 min.

**Q.** What about the choleresis (Choleresis) of the same molecule?
**A.** The choleresis was “No treatment caused any significant change”.

**Q.** What about the Animals with convulsions/treated ([9]; 250 mg/kg i.p.) of the same molecule?
**A.** Its Animals with convulsions/treated is 7/7.

**Q.** And the Died/treated ([9]; 250 mg/kg i.p.)?
**A.** The Died/treated was 1/7.

**Q.** What about the “Time of death” value ([9]; 250 mg/kg i.p., extreme values) of the same molecule?
**A.** The value was 33 min.

**Q.** And the Animals with convulsions/treated ([9]; 500 mg/kg i.p.)?
**A.** Its Animals with convulsions/treated is 3/8.

**Q.** What about the Died/treated ([9]; 500 mg/kg i.p.) of the same molecule?
**A.** Its Died/treated is 0/8.

**Q.** What about the Animals with convulsions/treated ([9]; 500 mg/kg os) of the same molecule?
**A.** Its Animals with convulsions/treated is 5/9.

**Q.** And the Died/treated ([9]; 500 mg/kg os)?
**A.** Its Died/treated is 0/9.

**Q.** And the “sedative effect or other abnormal symptoms” value [10]?
**A.** Its value is “No sedative effect or other abnormal symptoms were observed”.

**Q.** And the “tendency to accumulate in the organism” value [10]?
**A.** The value was “no tendency for AP-28 to accumulate in the organism”.

**Q.** And the “rate of urine excretion” value ([11]; 500 mg/kg oral daily for 5 subsequent days)?
**A.** The value was “the rate of urine excretion was slowed”.

**Q.** And the diuresis ([11]; single 500 mg/kg oral dose)?
**A.** Its diuresis is “No treatment caused any significant change”.
